Measured values published in patent US12071488B2, “Method of sensitizing cancer cells to anti-cancer treatment” (TWO TO BIOTECH LTD., priority 2017, dated 2024).

Tests used:
Format in all cases: cell-based, human
[1] = test system: HER2 receptor; assay: FACS analysis of HER2 receptor expression on MDA-MB-231 cells
Experimental: (§1) Cells (MDA-MB-231, MDA-MB-468 and BTS-149) were grown until 70-80% density was reached. Then the growth medium was discarded and the cells were treated with trypsin and medium as described above. After the cells were detached from the surface, the 20 ml cell suspension (namely cells in medium and Trypsin) were transferred into 50 ml conical tubes and centrifuged at 300 g for 10 min in 4° C. Next, the supernatant was discarded and 2 ml fresh medium were added to the cell pellet. Then the cells were fluidized and 13 ml medium was added to the tubes, thereby suspending the cells in a total of 15 ml medium. The cells were counted and seeded at 10.000-15,000 cells/well on chamber slide in 1 ml growing medium. The chamber slide seeded with cells was placed in the hood for 1 hour and then transferred to the incubator for an overnight incubation under the above conditions. The following day the medium was aspirated from the cell chamber slides and discarded and 1 ml cell treatment medium supplemented with APC1 (at a final concentration of 100 or 250 μg/ml) or control (medium only). Medium was added to each one of the wells (aliquots of APC1 were used in order to avoid repeated freeze-thaw cycle). The cells were then incubated for 24-144 hours. […]

[2] = test system: HER2; assay: Immunofluorescence of HER2 in MDA-MB-231 cells
Experimental: as §1

[3] = test system: pancreatic cancer cells BxPC3; assay: Glutathione level in pancreatic cancer cells treated with APC1; settings: pancreatic cancer cells (FIG. 18B)
Experimental: (§2) Gluthatione Assay Kit (Sigma CS0260);
(§3) Cell lines (MDA-MB-231, MDA-MB-468) were grown in 75 cm^2 cell culture flask, reached 80-90% confluence. The cells were treated with APC1 (250 μg/ml, 2 times per week for 1 week).
(§4) Cells were washed twice with 10 ml PBS, PBS (5 ml) was added and the cells were collected by scrapping, centrifuged at 300G, 4° C. for 5 minutes, the supernatant was then discarded and the cells were treated with APC1 as indicated above. The values of the Glutathione Standard Solutions were used to determine the standard curve and the delta A412/min equivalent to 1 nmole of reduced glutathione per well was calculated according to manufacturer's instructions.
(§5) As detailed above, the ovarian cancer cells OV90 and OV3, the pancreatic cancer cells BxPC3 and Panel and the TNBC cancer cells MDA-MB-231 and MDA-MB-468 were treated with APC1 and then the relative glutathione levels in these cells was measured as detailed above.

[4] = test system: TNBC cancer cells MDA-MB-231 and MDA-MB-468; assay: Glutathione level in TNBC cells treated with APC1; settings: TNBC cancer cells (FIG. 18C)
Experimental: as §2, §3, §4, §5

EKGAAFSPIYPRRK (C terminal peptide of KTPAF50) [APC1, polypeptide consisting of the 14 C-terminal amino acid residues of the peptide KTPAF50]
dependence of HER2 expression on APC1 concentration (FACS) ([1]; 100 μg/ml vs 250 μg/ml APC1): concentration dependent
HER2 expression (FACS) ([1]; MDA-MB-231 cells, two doses of APC1 at 100 or 250 μg/ml, vs control cells): rise in HER2 expression
HER2 expression by immunofluorescence ([2]; single dose 250 μg/ml APC1, 48 hours, vs control cells): clear HER2 expression
HER2 expression by immunofluorescence, multiple doses ([2]; three doses of 250 μg/ml APC1, 144, 96 and 72 hours, vs single dose): enhanced
level of glutathione [3]: decreased
level of glutathione [4]: decreased
